Results taken from patent US20250195521A1 (Revolution Medicines, Inc., priority 2020, published 2025).
Read-outs that look alike come from different tables or passages of the source.

Key:
[1] = test system: K-Ras G12C (NCI-H358 cells); assay: Potency assay: pERK in NCI-H358 cells; assay type: cell-based, human; conditions: read-out: pERK EC50 (H358 KRAS G12C)
In short: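 Cells plated the day before were exposed for 4 h at 37° C, 5% CO2 to a 10-point, 3-fold DMSO dilution series (10 mM top stock), in duplicate. Phospho-ERK was read by AlphaLISA SureFire Ultra or by In-Cell Western with DRAQ5 DNA stain, and IC50 came from a 4-parameter sigmoidal fit.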

NCI-H358 (K-Ras G12C) = assay: CellTiter-Glo cell viability assay, NCI-H358; assay type: cell-based, human
In short: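 Viability is measured as ATP-dependent luminescence (CellTiter-Glo) five days into compound treatment. Responses are normalized to vehicle (DMSO) wells and fitted by four-parameter logistic regression.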

[2] = Homo sapiens, NCI-H358 cells, 4 hours
[3] = Homo sapiens, NCI-H358, 120 h, 5-day treatment, read-out: H358 Cell Viability assay data (K-Ras G12C, IC50)
[4] = Homo sapiens, NCI-H358, 120 h, read-out: H358 Cell Viability assay data (K-Ras G12C, IC50, uM), 5-day treatment
[5] = 5-day treatment, read-out: H358 Cell Viability assay data (K-Ras G12C, IC50)

| Compound | IC50 (NCI-H358 (K-Ras G12C); [3]) [µM] | further results |
| --- | --- | --- |
| C=CC(=O)N1CC[C@H](C(=O)N(C)[C@H](C(=O)N[C@H]2Cc3cccc(c3)-c3ccc4c(c3)c(c(-c3cccnc3[C@H](C)OC)n4CC)CC(C)(C)COC(=O)[C@@H]3CCCN(N3)C2=O)[C@@H](C)C(F)(F)F)C1 (atropisomer, axis not shown) [Compound A640] | 0.01 to 0.1 | EC50 [1, 2]: < 5 µM |
| CCn1c(-c2cccnc2[C@H](C)OC)c2c3cc(ccc31)-c1csc(n1)C[C@H](NC(=O)[C@H](C(C)C)N(C)C(=O)N1CC[C@]3(CCN(C)C3=O)C1)C(=O)N1CCC[C@H](N1)C(=O)OCC(C)(C)C2 (single isomer, unassigned) [Compound A461] | < 0.01 | EC50 [1, 2]: < 5 µM |
| C=CC(=O)N1CC[C@H](C(=O)N(C)[C@H](C(=O)N[C@H]2Cc3cc(N)cc(c3)-c3ccc4c(c3)c(c(-c3ccccc3COC)n4CC)CC(C)(C)COC(=O)[C@@H]3CCCN(N3)C2=O)C(C)C)C1 [Compound A2] | > 10 | EC50 [1, 2]: < 5 µM |
| CCn1c(-c2cccnc2[C@H](C)OC)c2c3cc(ccc31)-c1cc(O)cc(c1)C[C@H](NC(=O)[C@H](C(C)C)N(C)C(=O)C1COC1)C(=O)N1CCC[C@H](N1)C(=O)OCC(C)(C)C2 [Compound A18] | 0.1 to 1 | EC50 [1, 2]: < 5 µM |
| C=CC(=O)N1CC[C@H](C(=O)N(C)[C@H](C(=O)N[C@H]2Cc3cc(O)cc(c3)-c3ccc4c(c3)c(c(-c3ccc(CC(=O)O)nc3)n4CC)CC(C)(C)COC(=O)[C@@H]3CCCN(N3)C2=O)C(C)C)C1 [Compound A21] |  | EC50 ([1]; Homo sapiens, NCI-H358, 4 h): < 5 µM; IC50 (NCI-H358 (K-Ras G12C); [4]): > 10 µM |
| C=CC(=O)N1CC[C@H](C(=O)N(C)[C@H](C(=O)N[C@H]2Cc3cc(O)cc(c3)-c3ccc4c(c3)c(c(-c3ncccc3[C@H](C)OC)n4CC)CC(C)(C)COC(=O)[C@@H]3CCCN(N3)C2=O)C(C)C)C1 [Compound A22] |  | EC50 ([1]; Homo sapiens, NCI-H358, 4 h): < 5 µM; IC50 (NCI-H358 (K-Ras G12C); [4]): 0.01 to 0.1 µM |
| C=CC(=O)N1CC[C@H](C(=O)N(C)[C@H](C(=O)N[C@H]2Cc3cc(O)cc(c3)-c3ccc4c(c3)c(c(-c3ccccc3CCOC)n4CC)CC(C)(C)COC(=O)[C@@H]3CCCN(N3)C2=O)C(C)C)C1 [Compound A24] | > 10 | EC50 [1, 2]: < 5 µM |
| CCn1c(-c2cnccc2COC)c2c3cc(ccc31)-c1cc(O)cc(c1)C[C@H](NC(=O)[C@H](C(C)C)N(C)C(=O)N1CC(OC)C1)C(=O)N1CCC[C@H](N1)C(=O)OCC(C)(C)C2 [Compound A30] | 0.01 to 0.1 | EC50 [1, 2]: < 5 µM |
| C=CC(=O)N1CC[C@H](C(=O)N(C)[C@H](C(=O)N[C@H]2Cc3cc(O)cc(c3)-c3ccc4c(c3)c(c(-c3ccccc3CCOC)n4C(C)(C)C#N)CC(C)(C)COC(=O)[C@@H]3CCCN(N3)C2=O)C(C)C)C1 [Compound A34] |  | EC50 ([1]; NCI-H358 cells, 4 hours): < 5 µM; IC50 (NCI-H358 (K-Ras G12C); [5]): 0.01 to 0.1 µM |
| CCn1c(-c2cnccc2COC)c2c3cc(ccc31)-c1cc(O)cc(c1)C[C@H](NC(=O)[C@H](C(C)C)N(C)C(=O)CN1CCOCC1)C(=O)N1CCC[C@H](N1)C(=O)OCC(C)(C)C2 [Compound A65] | 0.1 to 1 | EC50 [1, 2]: < 5 µM |
| CCn1c(-c2ccccc2CCOC)c2c3cc(ccc31)-c1cc(O)cc(c1)C[C@H](NC(=O)[C@H](C(C)C)N(C)C(=O)CCN)C(=O)N1CCC[C@H](N1)C(=O)OCC(C)(C)C2 [Compound A70] | 0.01 to 0.1 | EC50 [1, 2]: < 5 µM |
| CO[C@@H](C)c1ncccc1-c1nc2ccc3cn2c1CC(C)(C)COC(=O)[C@@H]1CCCN(N1)C(=O)[C@@H](NC(=O)[C@H](C(C)C)N(C)C(=O)[C@H]1CCN(C(=O)C#CC(C)(C)N(C)C)C1)Cc1cccc-3c1 [Compound A311] | > 10 |  |
| CCn1c(-c2cccnc2[C@H](C)OC)c2c3cc(ccc31)-c1csc(n1)C[C@H](NC(=O)C1(F)COC1)C(=O)N1CCC[C@H](N1)C(=O)OCC(C)(C)C2 [Compound A320] | 0.01 to 0.1 |  |
| C=CC(=O)Nc1ccc(C(=O)N(C)[C@H](C(=O)N[C@H]2Cc3cc(O)cc(c3)-c3ccc4c(c3)c(c(-c3cccnc3[C@H](C)OC)n4CC)CC(C)(C)COC(=O)[C@@H]3CCCN(N3)C2=O)C(C)C)cn1 [Compound A336] |  | IC50 (NCI-H358 (K-Ras G12C); [5]): < 0.01 µM |
| C=CC(=O)N1CC[C@H](C(=O)N(C)[C@H](C(=O)N[C@H]2Cc3nc(cs3)-c3ccc4c(n3)c(c(-c3cccnc3[C@H](C)OC)n4CC)CC(C)(C)COC(=O)[C@@H]3CCCN(N3)C2=O)C(C)C)C1 [Compound A347, (2S)—N-[(7S,13S)-21-ethyl-20-{2-[(1S)-1-methoxyethyl]pyridin-3-yl}-17,17-dimethyl-8,14-dioxo-15-oxa-4-thia-9,21,25,27,28-pentaazapentacyclo[17.5.2.1^{2,5}0.1^{9,13}0.0^{22,26}]octacosa-1 (25),2,5 (28), 19,22 (26),23-hexaen-7-yl]-3-methyl-2-{N-methyl-1-[(3S)-1-(prop-2-enoyl)pyrrolidin-3-yl]formamido}butanamide] | 0.1 to 1 |  |
| CCn1c(-c2cccnc2[C@H](C)OC)c2c3cc(ccc31)-c1csc(n1)C[C@H](NC(=O)[C@H](C(C)C)N(C)C(=O)N1CC(N(C)C(=O)C#CC(C)(C)N3CCC3)C1)C(=O)N1CCC[C@H](N1)C(=O)OCC(C)(C)C2 [Compound A379] | < 0.01 |  |
| C=CC(=O)N1CC[C@H](C(=O)N(C)[C@H](C(=O)N[C@H]2C[C@H]3CN(CCCO3)c3ccc4c(c3)c(c(-c3cccnc3[C@H](C)OC)n4CC)CC(C)(C)COC(=O)[C@@H]3CCCN(N3)C2=O)C(C)C)C1 [Compound A405] | > 10 |  |
| C=CC(=O)N1CC[C@H](C(=O)N(C)[C@H](C(=O)NC2C[C@H]3CN(CCCO3)c3ccc4c(c3)c(c(-c3cccnc3[C@H](C)OC)n4CC)CC(C)(C)COC(=O)[C@@H]3CCCN(N3)C2=O)C(C)C)C1 (some centres unmarked) [Compound A429] | > 10 |  |
| C=CC(=O)N1CC(OCC(C(=O)N[C@H]2Cc3cc(cc(C(F)F)c3)-c3ccc4c(c3)c(c(-c3cccnc3[C@H](C)OC)n4CC)CC(C)(C)COC(=O)[C@@H]3CCCN(N3)C2=O)C(C)C)C1 (some centres unmarked) [Compound A450] | > 10 |  |
| CCn1c(-c2cccnc2[C@H](C)OC)c2c3cc(ccc31)-c1csc(n1)C[C@H](NC(=O)[C@H](C(C)C)N(C)C(=O)N1CC([C@H](C)CO)C1)C(=O)N1CCC[C@H](N1)C(=O)OCC(C)(C)C2 [Compound A478] | 0.01 to 0.1 |  |
| CCn1c(-c2cccnc2[C@H](C)OC)c2c3cc(ccc31)-c1csc(n1)C[C@H](NC(=O)[C@H](C(C)C)N(C)C(=O)N1CC3(CC(N4CCOCC4)C3)C1)C(=O)N1CCC[C@H](N1)C(=O)OCC(C)(C)C2 [Compound A486] | 0.1 to 1 |  |
| CCn1c(-c2cccnc2[C@H](C)OC)c2c3cc(ccc31)-c1csc(n1)[C@@H](O)[C@H](NC(=O)[C@H](C(C)C)N(C)C(=O)N1CC(N(C)C)C1)C(=O)N1CCC[C@H](N1)C(=O)OCC(C)(C)C2 [Compound A489] | 0.01 to 0.1 |  |
| C=CC(=O)N1CC[C@H](C(=O)N(C)[C@H](C(=O)N[C@H]2CCC(=O)N(C)Cc3ccc4c(c3)c(c(-c3cccnc3[C@H](C)OC)n4CC)CC(C)(C)COC(=O)[C@@H]3CCCN(N3)C2=O)C(C)C)C1 [Compound A500] | > 10 |  |
| C=CC(=O)N1CC[C@H](C(=O)N(C)[C@H](C(=O)N[C@H]2Cc3cccc(c3)-c3ccc4c(c3)c(c(-c3cc(C5=CCN(C)CC5)cnc3[C@H](C)OC)n4CC)CC(C)(C)COC(=O)[C@@H]3CCCN(N3)C2=O)C(C)C)C1 [Compound A514] | 0.1 to 1 |  |
| C=CC(=O)N1CC[C@H](C(=O)N(C)[C@H](C(=O)N[C@H]2Cc3cccc(c3)-c3ccc4c(c3)c(c(-c3cc(C5CCN(C)CC5)cnc3[C@H](C)OC)n4CC)CC(C)(C)COC(=O)[C@@H]3CCCN(N3)C2=O)C(C)C)C1 [Compound A515] | < 0.01 |  |
| C=CC(=O)N1CC[C@H](C(=O)N(C)[C@H](C(=O)N[C@H]2Cc3nc(cs3)-c3ccc4c(c3)c(c(-c3cc(C5=CCN(C)CC5)cnc3[C@H](C)OC)n4CC)CC(C)(C)COC(=O)[C@@H]3CCCN(N3)C2=O)C(C)C)C1 [Compound A520] |  | IC50 (NCI-H358 (K-Ras G12C); [5]): < 0.01 µM |
| C=CC(=O)N1CC[C@H](C(=O)N(C)[C@H](C(=O)N[C@H]2Cc3cccc(c3)-c3ccc4c(c3)c(c(-c3cc(CN(C)C)cnc3[C@H](C)OC)n4CC)CC(C)(C)COC(=O)[C@@H]3CCCN(N3)C2=O)C(C)C)C1 [Compound A523] |  | IC50 (NCI-H358 (K-Ras G12C); [5]): 0.1 to 1 µM |
| CCn1c(-c2cccnc2[C@H](C)OC)c2c3cc(ccc31)-c1csc(n1)C[C@H](NC(=O)[C@H](C(C)C)N(C)C(=O)N1C3CC1CN(C)C3)C(=O)N1CCC[C@H](N1)C(=O)OCC(C)(C)C2 [Compound A541] | 0.01 to 0.1 |  |
| CO[C@@H](COC1CN(C(=O)C#CC(C)(C)N(C)C)C1)C(=O)N[C@H]1Cc2cccc(c2)-c2ccc3c(c2)c(c(-c2cccnc2[C@H](C)OC)n3CC(F)(F)F)CC(C)(C)COC(=O)[C@@H]2CCCN(N2)C1=O [Compound A556] | < 0.01 |  |
| CCn1c(-c2cccnc2[C@H](C)OC)c2c3cc(ccc31)-c1cccc(c1)C[C@H](NC(=O)[C@H](C(C)C)N1CC[C@]3(CCN(C(=O)C#C[C@]4(N(C)C)CCOC4)C3)C1=O)C(=O)N1CCC[C@H](N1)C(=O)OCC(C)(C)C2 [Compound A559] | < 0.01 |  |
